Measured values reported in PubChem BioAssay (NCI).
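Assay format: 96-well plates, 48-hour exposure. TGI: concentration producing complete growth inhibition.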

What was measured:
Experiment in all cases: NCI anticancer screen, dose series, 48 h
NCI-H226 lung = tested on: NCI-H226 lung
SF-295 CNS = tested on: SF-295 CNS
SK-MEL-5 melanoma = tested on: SK-MEL-5 melanoma
LOX IMVI melanoma = tested on: LOX IMVI melanoma
XF 498 CNS = tested on: XF 498 CNS
SR leukemia = tested on: SR leukemia
CCRF-CEM leukemia = tested on: CCRF-CEM leukemia
HOP-62 NSCLC = tested on: HOP-62 NSCLC
NCI-H460 lung = tested on: NCI-H460 lung
MCF7 breast = tested on: MCF7 breast
HOP-18 NSCLC = tested on: HOP-18 NSCLC

COc1cc(CNc2nc3c(NC(C)=O)cc(C(F)(F)F)cc3nc2-c2ccccc2)cc(OC)c1OC
TGI (NCI-H226 lung): > 100 µM | TGI (SF-295 CNS): > 100 µM | TGI (SK-MEL-5 melanoma): > 100 µM | TGI (LOX IMVI melanoma): > 100 µM | TGI (XF 498 CNS): > 100 µM | TGI (SR leukemia): > 100 µM | TGI (CCRF-CEM leukemia): > 100 µM | TGI (HOP-62 NSCLC): > 100 µM

Nc1ncnc2c1ncn2C1C(O)C=C(CO)C1O (stereo not given)
TGI (NCI-H226 lung): > 625 µM | TGI (SF-295 CNS): > 625 µM | TGI (SK-MEL-5 melanoma): > 625 µM | TGI (NCI-H460 lung): > 625 µM | TGI (LOX IMVI melanoma): > 625 µM | TGI (XF 498 CNS): < 0.0625 µM | TGI (MCF7 breast): > 625 µM | TGI (HOP-18 NSCLC): > 625 µM | TGI (HOP-62 NSCLC): > 625 µM

CCOC(=O)C(NC(=O)c1ccccc1)(Nc1ccc(S(=O)(=O)Nc2cc(C)on2)cc1)C(F)(F)F (stereo not given)
TGI (NCI-H226 lung): > 100 µM | TGI (SF-295 CNS): > 100 µM | TGI (SK-MEL-5 melanoma): > 100 µM | TGI (NCI-H460 lung): > 100 µM | TGI (LOX IMVI melanoma): > 100 µM | TGI (MCF7 breast): > 100 µM | TGI (SR leukemia): > 100 µM | TGI (CCRF-CEM leukemia): > 100 µM | TGI (HOP-62 NSCLC): > 100 µM

C/C(=C\C(=O)O)C(=O)N(C)c1ccccc1I
TGI (NCI-H226 lung): > 100 µM | TGI (SF-295 CNS): > 100 µM | TGI (SK-MEL-5 melanoma): > 100 µM | TGI (NCI-H460 lung): > 100 µM | TGI (LOX IMVI melanoma): > 100 µM | TGI (MCF7 breast): > 100 µM | TGI (SR leukemia): > 100 µM | TGI (CCRF-CEM leukemia): > 100 µM | TGI (HOP-62 NSCLC): > 100 µM

CCn1c(-c2cc3ccccc3cc2OC(C)=O)n[nH]c1=S
TGI (NCI-H226 lung): > 100 µM | TGI (SF-295 CNS): > 100 µM | TGI (SK-MEL-5 melanoma): 38.2 µM | TGI (NCI-H460 lung): 69.8 µM | TGI (LOX IMVI melanoma): > 100 µM | TGI (MCF7 breast): > 100 µM | TGI (SR leukemia): 4.79 µM | TGI (CCRF-CEM leukemia): 34.2 µM | TGI (HOP-62 NSCLC): > 100 µM

CCOC(=O)NC(Nc1ccc(C(=O)O)cc1)(C(F)(F)F)C(F)(F)F
TGI (NCI-H226 lung): > 100 µM | TGI (SF-295 CNS): > 100 µM | TGI (SK-MEL-5 melanoma): > 100 µM | TGI (NCI-H460 lung): > 100 µM | TGI (LOX IMVI melanoma): > 100 µM | TGI (MCF7 breast): > 100 µM | TGI (SR leukemia): > 100 µM | TGI (CCRF-CEM leukemia): > 100 µM | TGI (HOP-62 NSCLC): > 100 µM

CCOC(=O)/C=C(/OCC)[C@@H]1C(C(=O)c2ccc(Cl)cc2)[C@@H]1/C(=C\C(=O)OCC)OCC (stereo not given in full)
TGI (NCI-H226 lung): > 100 µM | TGI (SF-295 CNS): > 88.9 µM | TGI (SK-MEL-5 melanoma): > 59.9 µM | TGI (NCI-H460 lung): > 100 µM | TGI (LOX IMVI melanoma): > 100 µM | TGI (MCF7 breast): > 100 µM | TGI (SR leukemia): > 100 µM | TGI (CCRF-CEM leukemia): > 100 µM | TGI (HOP-62 NSCLC): > 100 µM

CC[P+](c1ccccc1)(N(C)C)N(C)C
TGI (NCI-H226 lung): > 100 µM | TGI (SF-295 CNS): > 100 µM | TGI (SK-MEL-5 melanoma): > 100 µM | TGI (NCI-H460 lung): > 100 µM | TGI (LOX IMVI melanoma): > 100 µM | TGI (MCF7 breast): > 100 µM | TGI (SR leukemia): > 100 µM | TGI (CCRF-CEM leukemia): > 100 µM | TGI (HOP-62 NSCLC): > 100 µM

NCC1OC(OC2C(N)CC(N)C(O)C2OC2OC(CO)C(O)C2O)C(N)C(O)C1O (stereo not given)
TGI (NCI-H226 lung): > 100 µM | TGI (SF-295 CNS): > 100 µM | TGI (SK-MEL-5 melanoma): > 100 µM | TGI (NCI-H460 lung): > 100 µM | TGI (LOX IMVI melanoma): > 100 µM | TGI (MCF7 breast): > 100 µM | TGI (SR leukemia): > 50 µM | TGI (CCRF-CEM leukemia): > 100 µM | TGI (HOP-62 NSCLC): > 50 µM

C=C(CCC(=O)N(CCc1c[nH]c2ccccc12)C(=O)c1ccccc1CSCC)C(=O)OC
TGI (NCI-H226 lung): > 100 µM | TGI (SF-295 CNS): > 100 µM | TGI (SK-MEL-5 melanoma): > 100 µM | TGI (NCI-H460 lung): > 100 µM | TGI (LOX IMVI melanoma): > 100 µM | TGI (MCF7 breast): > 100 µM | TGI (SR leukemia): > 100 µM | TGI (CCRF-CEM leukemia): > 100 µM | TGI (HOP-62 NSCLC): > 100 µM

CC1CC[C@@]2(OC1)OC1C[C@H]3[C@@H]4CC=C5C[C@@H](OC6OC(CO)C(OC7OC(CO)C(O)C(O)C7O)C(O)C6OC6OC(C)C(O)C(O)C6O)CC[C@]5(C)[C@H]4CC[C@]3(C)C1[C@@H]2C (stereo not given in full)
TGI (NCI-H226 lung): 1.67 µM | TGI (SF-295 CNS): 5.27 µM | TGI (SK-MEL-5 melanoma): 0.977 µM | TGI (NCI-H460 lung): 1.76 µM | TGI (LOX IMVI melanoma): 0.852 µM | TGI (MCF7 breast): 1.36 µM | TGI (SR leukemia): 0.852 µM | TGI (CCRF-CEM leukemia): 1.48 µM | TGI (HOP-62 NSCLC): 1.6 µM

Cc1c(-c2ccccc2)oc(=O)c2ccccc12
TGI (NCI-H226 lung): 40.3 µM | TGI (SF-295 CNS): 40.2 µM | TGI (SK-MEL-5 melanoma): 33.8 µM | TGI (NCI-H460 lung): > 100 µM | TGI (LOX IMVI melanoma): 40.4 µM | TGI (MCF7 breast): > 100 µM | TGI (SR leukemia): 65.4 µM | TGI (CCRF-CEM leukemia): 48.2 µM | TGI (HOP-62 NSCLC): 43.5 µM

CC(C)(C)OC(=O)N1CCC2(CC1)C(=O)NCN2c1ccccc1
TGI (NCI-H226 lung): > 100 µM | TGI (SF-295 CNS): > 100 µM | TGI (SK-MEL-5 melanoma): > 100 µM | TGI (NCI-H460 lung): > 100 µM | TGI (LOX IMVI melanoma): > 100 µM | TGI (MCF7 breast): > 100 µM | TGI (SR leukemia): > 100 µM | TGI (CCRF-CEM leukemia): > 100 µM | TGI (HOP-62 NSCLC): > 100 µM

CCOC1OC(C)(C=C(C#N)C#N)CCC1C (stereo not given)
TGI (NCI-H226 lung): 55.2 µM | TGI (SF-295 CNS): > 100 µM | TGI (SK-MEL-5 melanoma): > 100 µM | TGI (NCI-H460 lung): 98.7 µM | TGI (LOX IMVI melanoma): > 75.8 µM | TGI (MCF7 breast): > 100 µM | TGI (SR leukemia): > 76.2 µM | TGI (CCRF-CEM leukemia): > 86 µM | TGI (HOP-62 NSCLC): > 100 µM

Nc1c(-c2ccccc2)c2ccc([N+](=O)[O-])cc2c(=O)n1-c1cccc(C(=O)O)c1
TGI (NCI-H226 lung): > 100 µM | TGI (SF-295 CNS): > 100 µM | TGI (SK-MEL-5 melanoma): > 100 µM | TGI (NCI-H460 lung): > 100 µM | TGI (LOX IMVI melanoma): > 100 µM | TGI (MCF7 breast): > 100 µM | TGI (SR leukemia): > 100 µM | TGI (CCRF-CEM leukemia): > 100 µM | TGI (HOP-62 NSCLC): > 100 µM

C[N+](C)([O-])C12CC3CC(CC(C3)C1)C2
TGI (NCI-H226 lung): > 100 µM | TGI (SF-295 CNS): > 100 µM | TGI (SK-MEL-5 melanoma): > 100 µM | TGI (NCI-H460 lung): > 100 µM | TGI (LOX IMVI melanoma): 63.8 µM | TGI (MCF7 breast): > 100 µM | TGI (SR leukemia): > 100 µM | TGI (CCRF-CEM leukemia): > 100 µM | TGI (HOP-62 NSCLC): > 100 µM

CSC1=C(C)C(/C=N/Nc2ccc([N+](=O)[O-])cc2)=C(C)N(c2ccccc2)S1(=O)=O
TGI (NCI-H226 lung): > 100 µM | TGI (SF-295 CNS): > 100 µM | TGI (SK-MEL-5 melanoma): > 100 µM | TGI (NCI-H460 lung): > 100 µM | TGI (LOX IMVI melanoma): > 100 µM | TGI (MCF7 breast): > 100 µM | TGI (SR leukemia): > 100 µM | TGI (CCRF-CEM leukemia): > 100 µM | TGI (HOP-62 NSCLC): > 100 µM

Cc1cc(C)nc(NS(=O)(=O)c2ccc(NC(=O)c3ccc4nc5ccccc5c(Nc5ccc(S(=O)(=O)N=C(N)N)cc5)c4c3)cc2)n1
TGI (NCI-H226 lung): > 100 µM | TGI (SF-295 CNS): > 100 µM | TGI (SK-MEL-5 melanoma): > 100 µM | TGI (NCI-H460 lung): > 100 µM | TGI (LOX IMVI melanoma): > 100 µM | TGI (MCF7 breast): > 100 µM | TGI (SR leukemia): > 100 µM | TGI (CCRF-CEM leukemia): > 100 µM | TGI (HOP-62 NSCLC): > 100 µM

O=C(Nc1nnc(-c2ccccc2)o1)C(SC(=S)N1CCCC1)c1ccccc1 (stereo not given)
TGI (NCI-H226 lung): > 100 µM | TGI (SF-295 CNS): > 100 µM | TGI (SK-MEL-5 melanoma): 38.2 µM | TGI (NCI-H460 lung): 62.3 µM | TGI (LOX IMVI melanoma): 41.4 µM | TGI (MCF7 breast): > 100 µM | TGI (SR leukemia): > 100 µM | TGI (CCRF-CEM leukemia): 71.4 µM | TGI (HOP-62 NSCLC): > 100 µM
